Experiments:
Assay type in all cases: cell-based
[1] = biological target: T1, PARP1 (Homo sapiens, UniProt P09874); experiment: PARP1 trapping, chromatin fractionation (chromatin-bound fraction); details: PC3 cells
T1 construct: endogenous in cells; host or cells: PC3
Procedure, shortened: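 PARP1 trapping was measured as PARP1 in the chromatin-bound fraction across six lines: SUM149PT-BRCA1mut/BRCA1rev (breast), UWB1.289 BRCA1-null and BRCA1-restored (ovarian), HR-deficient C4-2B/MR (Rad51 mutant) and HR-proficient PC3 (prostate).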

[2] = tested on: PC3 and SUM149PT-BRCA1mut cells; experiment: CCK8 cell killing screen of JC099 analogs
From the text: Structure optimization represents a critical step towards identifying candidate compounds for preclinical and clinical development and contributes to structure-function analysis. […] Cell killing potency was detected by a CCK8 assay in prostate and breast cancer cells. […]
The cell killing potency was detected by a CCK8 assay in prostate and breast cancer cells.

[3] = biological target: T2, ATR (Homo sapiens, UniProt Q13535); experiment: ATR-mediated signaling: phosphorylation of Rad17 Ser 645 and CHK1 Ser 345 in cells; details: compared to JC099
T2 construct: endogenous in cells; host or cells: PC3, C4-2B/MR, SUM149PT-BRCA1rev, UWB1.289+BRCA1, MDA-MB-231
Description: PARP inhibitor-resistant cells are increasingly dependent on ATR for survival, and ATR inhibition disrupts restored HR and fork protection pathways in PARP inhibitor resistant BRCA-deficient cancer cells. For ATR kinase in vitro assays, ATR was immunoprecipitated with 3 μg of anti-ATR antibody (Bethyl Laboratories, A300-137A) from 1 mg of cell lysate. […] The IC50 was determined by the enzyme profiling service of Eurofins Cerep (France). […] The phosphorylation of CHK1 at Ser 345 sites was used as a bio-marker of ATR-mediated signaling pathway. The phosphorylation of Rad17 at Ser 645, which is a substrate of ATR, was also examined.
ATR inhibition was assessed in C4-2B/MR cells. Considering ATM is a homologous protein of ATR, we also detected the effect of JC046 analogs on the phosphorylation of KAP1 at Ser 824 and CHK2 at Thr 68 sites, which were used as markers of ATM signaling pathway.

T1 sequence (P09874 whole entry, species assumed): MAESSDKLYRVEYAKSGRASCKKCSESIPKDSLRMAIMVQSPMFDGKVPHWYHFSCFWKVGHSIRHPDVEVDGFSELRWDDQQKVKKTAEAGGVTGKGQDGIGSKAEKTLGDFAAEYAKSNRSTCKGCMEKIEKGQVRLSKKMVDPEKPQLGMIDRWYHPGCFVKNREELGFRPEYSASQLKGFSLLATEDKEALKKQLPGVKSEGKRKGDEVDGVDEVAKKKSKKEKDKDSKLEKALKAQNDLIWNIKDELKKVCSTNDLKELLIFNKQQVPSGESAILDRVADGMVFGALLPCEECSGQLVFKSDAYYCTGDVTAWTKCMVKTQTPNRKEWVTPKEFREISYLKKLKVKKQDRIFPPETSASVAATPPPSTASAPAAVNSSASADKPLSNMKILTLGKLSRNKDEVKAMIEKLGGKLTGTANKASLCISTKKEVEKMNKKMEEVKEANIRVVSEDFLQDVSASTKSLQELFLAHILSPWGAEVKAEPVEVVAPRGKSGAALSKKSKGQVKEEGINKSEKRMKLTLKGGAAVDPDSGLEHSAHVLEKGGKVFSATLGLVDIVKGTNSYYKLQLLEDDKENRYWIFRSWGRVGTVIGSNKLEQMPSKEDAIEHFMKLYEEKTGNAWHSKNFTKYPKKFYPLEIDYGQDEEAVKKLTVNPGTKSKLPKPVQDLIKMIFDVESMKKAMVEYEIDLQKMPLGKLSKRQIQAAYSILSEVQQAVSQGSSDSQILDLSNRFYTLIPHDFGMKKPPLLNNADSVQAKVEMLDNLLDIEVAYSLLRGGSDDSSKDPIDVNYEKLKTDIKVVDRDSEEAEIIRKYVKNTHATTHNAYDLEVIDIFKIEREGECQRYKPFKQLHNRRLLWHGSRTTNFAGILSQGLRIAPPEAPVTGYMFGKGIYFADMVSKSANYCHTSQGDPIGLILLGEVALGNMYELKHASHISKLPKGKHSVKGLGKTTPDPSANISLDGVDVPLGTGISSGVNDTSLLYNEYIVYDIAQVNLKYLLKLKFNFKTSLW
T2 sequence (Q13535 whole entry): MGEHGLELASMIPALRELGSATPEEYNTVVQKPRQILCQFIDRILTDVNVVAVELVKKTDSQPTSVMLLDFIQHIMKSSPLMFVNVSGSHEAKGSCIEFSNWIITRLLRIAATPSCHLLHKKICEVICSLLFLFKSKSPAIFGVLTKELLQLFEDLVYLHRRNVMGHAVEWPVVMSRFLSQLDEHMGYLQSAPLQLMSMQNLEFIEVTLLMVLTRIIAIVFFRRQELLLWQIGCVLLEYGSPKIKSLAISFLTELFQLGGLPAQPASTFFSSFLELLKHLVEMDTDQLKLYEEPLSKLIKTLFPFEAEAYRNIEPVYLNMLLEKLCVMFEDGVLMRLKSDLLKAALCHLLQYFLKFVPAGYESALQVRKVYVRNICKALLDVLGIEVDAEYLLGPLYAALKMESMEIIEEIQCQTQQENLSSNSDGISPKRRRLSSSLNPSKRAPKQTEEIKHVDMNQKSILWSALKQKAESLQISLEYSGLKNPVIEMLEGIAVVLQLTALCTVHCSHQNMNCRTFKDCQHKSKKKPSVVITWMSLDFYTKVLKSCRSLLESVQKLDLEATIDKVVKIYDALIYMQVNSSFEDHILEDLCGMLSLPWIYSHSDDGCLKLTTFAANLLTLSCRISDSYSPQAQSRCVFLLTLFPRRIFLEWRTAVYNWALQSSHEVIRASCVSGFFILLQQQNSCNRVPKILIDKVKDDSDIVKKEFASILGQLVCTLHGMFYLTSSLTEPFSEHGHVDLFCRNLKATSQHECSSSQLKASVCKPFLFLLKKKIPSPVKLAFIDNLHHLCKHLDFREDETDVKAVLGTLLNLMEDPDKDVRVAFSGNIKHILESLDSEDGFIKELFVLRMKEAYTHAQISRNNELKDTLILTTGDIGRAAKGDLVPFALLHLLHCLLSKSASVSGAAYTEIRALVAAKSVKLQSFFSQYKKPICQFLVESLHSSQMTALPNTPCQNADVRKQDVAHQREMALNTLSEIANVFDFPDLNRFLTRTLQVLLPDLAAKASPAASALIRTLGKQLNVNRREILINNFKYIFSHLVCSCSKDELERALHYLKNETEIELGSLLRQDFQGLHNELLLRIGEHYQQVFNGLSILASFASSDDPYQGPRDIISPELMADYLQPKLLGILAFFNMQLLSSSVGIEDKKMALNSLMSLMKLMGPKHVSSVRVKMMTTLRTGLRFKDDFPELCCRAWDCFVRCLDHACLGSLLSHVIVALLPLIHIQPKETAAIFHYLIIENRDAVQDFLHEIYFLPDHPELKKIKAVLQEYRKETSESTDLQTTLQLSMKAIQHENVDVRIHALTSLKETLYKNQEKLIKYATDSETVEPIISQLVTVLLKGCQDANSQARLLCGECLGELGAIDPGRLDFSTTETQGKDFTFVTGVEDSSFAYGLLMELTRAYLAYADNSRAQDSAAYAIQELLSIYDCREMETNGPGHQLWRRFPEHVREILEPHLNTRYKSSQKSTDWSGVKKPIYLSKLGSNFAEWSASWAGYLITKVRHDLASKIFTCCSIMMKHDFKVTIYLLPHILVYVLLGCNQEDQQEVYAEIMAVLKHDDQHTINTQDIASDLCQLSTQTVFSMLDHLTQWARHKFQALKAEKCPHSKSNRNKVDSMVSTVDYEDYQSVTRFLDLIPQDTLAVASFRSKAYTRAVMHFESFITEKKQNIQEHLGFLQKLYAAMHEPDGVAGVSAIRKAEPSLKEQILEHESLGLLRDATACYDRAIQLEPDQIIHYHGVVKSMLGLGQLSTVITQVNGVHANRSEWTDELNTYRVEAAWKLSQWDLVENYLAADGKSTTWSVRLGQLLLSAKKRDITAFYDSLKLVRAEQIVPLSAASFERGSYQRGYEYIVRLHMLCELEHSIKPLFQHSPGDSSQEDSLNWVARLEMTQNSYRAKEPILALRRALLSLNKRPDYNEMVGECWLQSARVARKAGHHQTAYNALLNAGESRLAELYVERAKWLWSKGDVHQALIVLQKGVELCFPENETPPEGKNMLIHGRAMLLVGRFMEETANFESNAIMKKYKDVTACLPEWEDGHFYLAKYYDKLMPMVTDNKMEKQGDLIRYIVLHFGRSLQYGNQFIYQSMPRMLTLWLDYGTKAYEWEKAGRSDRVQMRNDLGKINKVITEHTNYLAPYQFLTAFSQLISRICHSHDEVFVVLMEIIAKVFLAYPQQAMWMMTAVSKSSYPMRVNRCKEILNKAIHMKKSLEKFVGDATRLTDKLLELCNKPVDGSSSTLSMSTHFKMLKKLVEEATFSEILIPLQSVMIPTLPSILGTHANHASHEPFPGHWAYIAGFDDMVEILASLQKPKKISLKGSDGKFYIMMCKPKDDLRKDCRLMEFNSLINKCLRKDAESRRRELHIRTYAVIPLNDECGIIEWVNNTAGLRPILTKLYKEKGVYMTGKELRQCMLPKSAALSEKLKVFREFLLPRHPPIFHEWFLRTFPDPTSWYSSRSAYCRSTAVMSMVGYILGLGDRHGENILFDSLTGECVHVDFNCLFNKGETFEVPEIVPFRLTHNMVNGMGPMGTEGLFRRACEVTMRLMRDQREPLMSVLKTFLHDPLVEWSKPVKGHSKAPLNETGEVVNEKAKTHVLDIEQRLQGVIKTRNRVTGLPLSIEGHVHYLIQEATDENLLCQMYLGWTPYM
T2 sequence (Q8WXE1 whole entry partner): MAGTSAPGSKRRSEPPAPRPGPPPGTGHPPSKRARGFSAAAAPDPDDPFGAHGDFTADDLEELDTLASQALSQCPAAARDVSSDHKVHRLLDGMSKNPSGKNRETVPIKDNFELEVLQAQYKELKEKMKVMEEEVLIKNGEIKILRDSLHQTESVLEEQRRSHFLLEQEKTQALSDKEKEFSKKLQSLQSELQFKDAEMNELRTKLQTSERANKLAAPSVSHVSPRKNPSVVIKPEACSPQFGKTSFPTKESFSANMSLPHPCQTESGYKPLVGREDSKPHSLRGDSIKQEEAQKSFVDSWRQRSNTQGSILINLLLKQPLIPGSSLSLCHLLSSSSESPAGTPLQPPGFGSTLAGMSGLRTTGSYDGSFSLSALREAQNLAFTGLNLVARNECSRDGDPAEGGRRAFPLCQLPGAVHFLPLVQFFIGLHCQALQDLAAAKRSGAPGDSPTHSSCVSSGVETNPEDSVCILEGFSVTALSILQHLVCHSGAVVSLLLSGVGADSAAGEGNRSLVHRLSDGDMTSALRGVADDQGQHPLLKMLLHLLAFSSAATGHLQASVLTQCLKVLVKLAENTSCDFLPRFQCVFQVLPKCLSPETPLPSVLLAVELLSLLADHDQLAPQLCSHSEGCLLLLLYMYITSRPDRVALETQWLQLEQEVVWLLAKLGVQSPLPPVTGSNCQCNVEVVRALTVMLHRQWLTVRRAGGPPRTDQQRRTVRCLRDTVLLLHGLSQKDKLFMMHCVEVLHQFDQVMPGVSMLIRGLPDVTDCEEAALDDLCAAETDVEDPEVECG

Row | SMILES | PARP1 trapped on DNA lesions ([1]; 0.3 μM) | cell killing potency relative to JC099 [2] | PARP1-trapping potency relative to JC099 (PARP1 in the chromatin-bound fraction) [1] | ATR inhibition potency relative to JC099 (OLA- or UV-induced phosphorylation of Rad17 and CHK1) [3]
1 | O=C(CN1CCCC1)Nc1ccc(C(=O)NC2C/C(=C\c3ccc(F)c(F)c3)C(=O)/C(=C/c3ccc(F)c(F)c3)C2)cc1 (stereo not drawn) [JCS046, N-(3,5-bis((E)-3,4-difluorobenzylidene)-4-oxocyclohexyl)-4-(2-(pyrrolidin-1-yl)acetamido)benzamide] | trapped | higher cell killing potency than JC099 |  | 
2 | CN1CCN(c2ccc(C(=O)NC3C/C(=C\c4ccc(F)c(F)c4)C(=O)/C(=C/c4ccc(F)c(F)c4)C3)cc2)CC1 (stereo not drawn) [JCS071, N-(3,5-Bis((E)-3,4-difluorobenzylidene)-4-oxocyclohexyl)-4-(4-methylpiperazin-1-yl)benzamide] |  | higher cell killing potency than JC099 |  | 
3 | O=C1/C(=C/c2ccc(F)c(F)c2)CC(NC(=O)c2ccc(C(=O)NCCN3CCCC3)cc2)C/C1=C\c1ccc(F)c(F)c1 (stereo not drawn) [JCS076, N1-(3,5-bis((E)-3,4-difluorobenzylidene)-4-oxocyclohexyl)-N4-(2-(pyrrolidin-1-yl)ethyl)terephthalamide] |  | higher cell killing potency than JC099 | increased the accumulation of PARP1 in the chromatin-bound fraction than JC099 | greater ATR inhibition potential
4 | O=C1/C(=C/c2ccc(F)c(F)c2)CC(NC(=O)c2ccc(OCCN3CCC(N4CCCC4)CC3)cc2)C/C1=C\c1ccc(F)c(F)c1 (stereo not drawn) [JCS080, N-(3,5-bis((E)-3,4-difluorobenzylidene)-4-oxocyclohexyl)-4-(2-(4-(pyrrolidin-1-yl)piperidin-1-yl)ethoxy)benzamide] |  | higher cell killing potency than JC099 |  | greater ATR inhibition potential
5 | N#Cc1cc(NCCN2CCCC2)ccc1C(=O)NC1C/C(=C\c2ccc(F)c(F)c2)C(=O)/C(=C/c2ccc(F)c(F)c2)C1 (stereo not drawn) [JCS091, N-(3,5-Bis((E)-3,4-difluorobenzylidene)-4-oxocyclohexyl)-2-cyano-4-((2-(pyrrolidin-1-yl)ethyl)ami-no)benzamide] |  | higher cell killing potency than JC099 | higher potency in PARP1-trapping | 
6 | COCCN(CCOc1ccc(C(=O)NC2C/C(=C\c3ccc(F)c(F)c3)C(=O)/C(=C/c3ccc(F)c(F)c3)C2)cc1)CC1CCCO1 (stereo not drawn) [JCS110, N-(3,5-Bis((E)-3,4-difluorobenzylidene)-4-oxocyclohexyl)-4-(2-((2-methoxyethyl)((tetrahydrofuran-2-yl)methyl)amino)ethoxy)benzamide] |  | moderate potency of cell killing, whereas less than JC099 |  | greater ATR inhibition potential
7 | CCN(CC)CCOc1ccc(C(=O)NC2C/C(=C\c3ccc(F)c(F)c3)C(=O)/C(=C/c3ccc(F)c(F)c3)C2)cc1OC (stereo not drawn) [JCS111, N-(3,5-Bis((E)-3,4-difluorobenzylidene)-4-oxocyclohexyl)-4-(2-(diethylamino)ethoxy)-3-methoxy-benzamide] |  | moderate potency of cell killing, whereas less than JC099 |  | their potencies were close to JC099
8 | CCN1CCC[C@H]1CNc1ccc(C(=O)NC2C/C(=C\c3cc(F)c(F)c(F)c3)C(=O)/C(=C/c3cc(F)c(F)c(F)c3)C2)cc1 (stereo partly drawn) [JCS142, 4-((((S)-1-Ethylpyrrolidin-2-yl)methyl)amino)-N-(4-oxo-3,5-bis((E)-3,4,5-trifluorobenzylidene)-cyclohexyl)benzamide] |  | higher cell killing potency than JC099 |  | greater ATR inhibition potential
9 | COCCN(CCOC)CCOc1ccc(C(=O)NC2C/C(=C\c3cc(F)c(F)c(F)c3)C(=O)/C(=C/c3cc(F)c(F)c(F)c3)C2)cc1 (stereo not drawn) [JCS143, 4-(2-(Bis(2-methoxyethyl)amino)ethoxy)-N-(4-oxo-3,5-bis((E)-3,4,5-trifluorobenzylidene)cyclo-hexyl)benzamide] |  | moderate potency of cell killing, whereas less than JC099 |  | less ATR inhibition potencies
10 | CCN(CC)CCOc1ccc(C(=O)NC2C/C(=C\c3ccc(F)cc3)C(=O)/C(=C/c3ccc(F)cc3)C2)cc1 (stereo not drawn) [JCS149, N-(3,5-Bis((E)-4-fluorobenzylidene)-4-oxocyclohexyl)-4-(2-(diethylamino)ethoxy)benzamide] |  |  | their potencies were less than JC099 | less ATR inhibition potencies
11 | O=C1/C(=C/c2ccc(F)c(F)c2)CC(NC(=O)c2ccc(OCCNN3CCCCC3)cc2)C/C1=C\c1ccc(F)c(F)c1 (stereo not drawn) [JCS150, N-(3,5-Bis((E)-3,4-difluorobenzylidene)-4-oxocyclohexyl)-4-(2-(piperidin-1-ylamino)ethoxy)-benzamide] |  |  | their potencies were less than JC099 | their potencies were close to JC099
12 | O=C1/C(=C/c2ccc(F)c(F)c2)CC(NC(=O)c2ccc(OCCN3CC4(COC4)C3)cc2)C/C1=C\c1ccc(F)c(F)c1 (stereo not drawn) [JCS151, 4-(2-(2-Oxa-6-azaspiro[3.3]heptan-6-yl)ethoxy)-N-(3,5-bis((E)-3,4-difluorobenzylidene)-4-oxocyclohexyl)benzamide] |  |  | their potencies were less than JC099 | their potencies were close to JC099
13 | CCN(CC)CCOc1ccc(C(=O)NC2C/C(=C\c3cc(F)c(F)c(OC)c3)C(=O)/C(=C/c3cc(F)c(F)c(OC)c3)C2)cc1 (stereo not drawn) [JCS152, N-(3,5-Bis((E)-3,4-difluoro-5-methoxybenzylidene)-4-oxocyclohexyl)-4-(2-(diethylamino)-ethoxy)benzamide] |  | higher cell killing potency than JC099 |  | greater ATR inhibition potential
14 | CCN1CCC[C@H]1CNc1ccc(C(=O)NC2C/C(=C\c3cc(F)c(F)cc3F)C(=O)/C(=C/c3cc(F)c(F)cc3F)C2)cc1 (stereo partly drawn) [JCS154, 4-((((S)-1-Ethylpyrrolidin-2-yl)methyl)amino)-N-(4-oxo-3,5-bis((E)-2,4,5-trifluorobenzylidene)-cyclohexyl)benzamide] |  | moderate potency of cell killing, whereas less than JC099 |  | their potencies were close to JC099
15 | CCN(CC)CCOc1ccc(C(=O)NC2C/C(=C\c3cc(F)c(F)cc3F)C(=O)/C(=C/c3cc(F)c(F)cc3F)C2)cc1 (stereo not drawn) [JCS156, 4-(2-(Diethylamino)ethoxy)-N-(4-oxo-3,5-bis((E)-2,4,5-trifluorobenzylidene)cyclohexyl)benzamide] |  | moderate potency of cell killing, whereas less than JC099 |  | their potencies were close to JC099
16 | CCN(CC)CCOc1ccc(C(=O)NC2C/C(=C\c3ccc(F)c(F)c3F)C(=O)/C(=C/c3ccc(F)c(F)c3F)C2)cc1 (stereo not drawn) [JCS159, 4-(2-(Diethylamino)ethoxy)-N-(4-oxo-3,5-bis((E)-2,3,4-trifluorobenzylidene)cyclohexyl)benzamide] |  |  | higher potency in PARP1-trapping | less ATR inhibition potencies
17 | CN1CCC[C@H]1CNc1ccc(C(=O)NC2C/C(=C\c3ccc(F)c(F)c3)C(=O)/C(=C/c3ccc(F)c(F)c3)C2)cc1 (stereo partly drawn) [JCS160, N-(3,5-Bis((E)-3,4-difluorobenzylidene)-4-oxocyclohexyl)-4-((((S)-1-methylpyrrolidin-2-yl)methyl)-amino)benzamide] |  |  | their potencies were less than JC099 | greater ATR inhibition potential
18 | CN1CCC[C@H]1CNc1ncc(C(=O)NC2C/C(=C\c3ccc(F)c(F)c3)C(=O)/C(=C/c3ccc(F)c(F)c3)C2)cn1 (stereo partly drawn) [JCS161, N-(3,5-Bis((E)-3,4-difluorobenzylidene)-4-oxocyclohexyl)-2-((((S)-1-methylpyrrolidin-2-yl)methyl)-amino)pyrimidine-5-carboxamide] |  | higher cell killing potency than JC099 |  | 
19 | CCCN(CCC)CCOc1ccc(C(=O)NC2C/C(=C\c3ccc(F)c(F)c3)C(=O)/C(=C/c3ccc(F)c(F)c3)C2)cc1 (stereo not drawn) [JCSO11] |  | higher cell killing potency than JC099 |  | 

From patent publication US20260209193A1, “NOVEL INHIBITORS OF DNA DAMAGE RESPONSES FOR CANCER THERAPY” (The Regents of the University of California, priority 2022, published 2026)
